Test results published in paper PMC2908602, “Placental transfer of the polybrominated diphenyl ethers BDE-47, BDE-99 and BDE-209 in a human placenta perfusion system: an experimental study” (Environmental Health, 2010).
Read-outs that look alike come from different tables or passages of the source.

Key:
human placenta [1] = settings: cited from earlier work
[2] = parameters: method as in PMID 11999784; settings: cited from earlier work
[3] = in vivo; cited from earlier work
human placenta [4] = system: human placenta
Protocol: The study was approved by the regional Ethics Committee (KF 01-145/03 + KF(11) 260063) and the Data Protection Agency. All mothers gave informed written consent. […] The placentas were injected with a Krebs Ringer buffer containing heparin (5000 IU/ml, 5 ml/l medium) to prevent any remaining blood in fetal vessels from coagulating. The perfusions were performed in a dual perfusion system as previously described. […] Next, the lobule containing the perfused cotyledon was cut from the placenta (9 cm diameter) and placed in the perfusion chamber. The maternal circulation was connected by blunt cannulation of the intervillous space surrounding the perfused cotyledon. The perfusion media (100 mL each in fetal and maternal reservoirs) were circulated by peristaltic pumps and consisted of Krebs Ringer Buffer containing heparin (5000 IU/mL, Copenhagen University Hospital Pharmacy, 5 mL/L medium), glucose (0.6 g/100 mL), Pen-Strep (1% Substrate department standard solution, Panum Institute Copenhagen) and physiological levels of Human Serum Albumin (20% solution, CSL Behring Gmbh, dialysed in Krebs Ringer Buffer, maternal reservoir: 30 g/L; fetal reservoir: 40 g/L) and gassed with 95% O2/5% CO2 and 95% N2/5% CO2 in the maternal and fetal reservoirs, respectively. […] After at least 30 minutes of pre-perfusion to stabilise temperature and oxygen content, BDE-47, BDE-99 and BDE-209 (Cambridge Isotopes Laboratories, 1 μg/mL in ethanol, 100 μL added; final concentration of 1 ng/mL) and the positive control substance antipyrine dissolved in H2O (Aldrich-Chemie, Germany; final concentration of 100 μg/mL) were added to the maternal reservoir. The applied concentrations of PBDEs were a compromise between achieving final levels relatively close to in vivo levels and having a detection frequency close to 100%. […] The perfusions were run for four hours, and 6 mL were sampled at t = 0 from the maternal circulation and from both reservoirs before addition of the compounds and at 2, 30, 60, 130, 190 and 240 minutes after addition of the compounds. The sampled volume was not replaced.
The pH (7.2-7.4), glucose and lactate concentrations (glucose > 6 mM), and O2 tension in the maternal perfusion medium (30-35 kPa), in the fetal perfusion medium (10-15 kPa), and in the fetal venous outflow (15-20 kPa) were measured every 30 minutes using an ABL5 blood gas analyser (Radiometer, Denmark). Adjustments were made using 1 M HCl or 1 M NaOH to adjust pH, glucose solution (2,61 g/L) and increasing or decreasing the rate of 95% N2/5% CO2 gassing in the fetal perfusate or 95% O2/5% CO2 gassing in the maternal perfusate to adjust pO2 after each measurement.
In addition to the perfusion samples, the three PBDE congeners were analysed in umbilical cord blood and in the placental tissue before and after the perfusion. Samples of umbilical cord blood were taken if possible and processed to collect plasma. Subsamples of the placental tissue were taken before perfusion as well as from the cotyledon and the surrounding tissue after perfusion. Prior to placenta perfusions, adsorption tests had been performed: The chambers and tubes were perfused without placental tissue to investigate loss of substance during the perfusion, for instance through adsorption to the perfusion system.

[5] = parameters: species or system human; settings: in vivo
Protocol: Total lipid content in placental tissue was determined according to Smedes (1999), while enzymatic lipid determination of triglyceride and cholesterol was performed on the plasma samples and total lipid was calculated as described by Covaci et al (2006).

Cn1c(=O)c2c(ncn2C)n(C)c1=O [caffeine]
indicative permeability coefficient (IPC) (human placenta [1]; not told): 1.03 h⁻¹

O=C(O)CNCP(=O)(O)O [glyphosate]
indicative permeability coefficient (IPC) (human placenta [1]; perfused in the same human placenta model): 0.11 h⁻¹

Brc1c(Br)c(Br)c(Oc2c(Br)c(Br)c(Br)c(Br)c2Br)c(Br)c1Br [BDE-209, decabromo diphenyl ether]
logKow [2]: ≥ 10 | median level in placental tissue [3]: 1.14 ng/g lw | observed blood levels, Denmark [3]: ~ 0.014 ng/ml | observed blood levels, elsewhere [3]: 0.009 to 0.15 ng/mL | Cotyledon (perfused tissue) level (human placenta [4]; 4 h, 1 ng/mL): 107.8 (64.2-159.5) ng/g lw | Surrounding placental tissue level (human placenta [4]; 4 h, 1 ng/mL): 22.2 (16.3-31.8) ng/g lw | concentration in perfused cotyledon relative to background (human placenta [4]; 4 h, 1 ng/mL): 20 times | concentration in surrounding tissue relative to background (human placenta [4]; 4 h, 1 ng/mL): 100 times | mass balance: amount unaccounted for (system adsorption) (human placenta [4]; 4 h, 1 ng/mL): -8% | mass balance: fraction of added amount in cotyledon (human placenta [4]; 4 h, 1 ng/mL): 24% | mass balance: fraction of added amount in fetal circulation (human placenta [4]; 4 h, 1 ng/mL): 0% | mass balance: fraction of added amount in maternal circulation (human placenta [4]; 4 h, 1 ng/mL): 27% | mass balance: fraction of added amount in surrounding placental tissue (human placenta [4]; 4 h, 1 ng/mL): 19% | mass balance: fraction of added amount removed by sampling (human placenta [4]; 4 h, 1 ng/mL): 38% | Non-perfused placental tissue level [5]: < LOQ | Umbilical cord plasma level [5]: < LOQ

c1ccc2c(c1)cc1ccc3cccc4ccc2c1c34 [benzo(a)pyrene]
indicative permeability coefficient (IPC) (human placenta [1]; human placenta perfusion): 0.08 h⁻¹

Cc1cc(=O)n(-c2ccccc2)n1C [antipyrine, reference compound]
indicative permeability coefficient (IPC) (human placenta [1]): 0.94 h⁻¹ | FM-ratio at 190 min (human placenta [4]; 190 min, 100 µg/mL): 1.04
